Converted amounts (≈) assume the structure as drawn. Like-named read-outs stand apart in the source and are kept apart here.
Columns and labels:
[1] = test system: Candida parapsilosis; experiment: Antifungal MIC (RPMI-1640 microdilution); assay type: cell-based; details: for MIC50: Lodderomyces parapsilosis
[2] = test system: C. krusei; experiment: Antifungal MIC (RPMI-1640 microdilution); assay type: cell-based; details: Pichia kudriavzevii, ATCC6258, read-out: MIC 50% inhibition; isolate ATCC 6258
[3] = test system: Candida albicans; experiment: Antifungal MIC (RPMI-1640 microdilution); assay type: cell-based
[4] = test system: Candida auris; experiment: Antifungal MIC (RPMI-1640 microdilution); assay type: cell-based; details: Candidozyma auris
[5] = test system: Candida glabrata; experiment: Antifungal MIC (RPMI-1640 microdilution); assay type: cell-based; details: Nakaseomyces glabratus
[6] = test system: Candida guilliermondii; experiment: Antifungal MIC (RPMI-1640 microdilution); assay type: cell-based; details: Meyerozyma guilliermondii
[7] = test system: Cryptococcus neoformans; experiment: Antifungal MIC (RPMI-1640 microdilution); assay type: cell-based; details: Cryptococcus neoformans
[8] = test system: P. variotii; experiment: Antifungal MIC (RPMI-1640 microdilution); assay type: cell-based; details: Paecilomyces variotii
[9] = test system: Scedosporium sp.; experiment: Antifungal MIC (RPMI-1640 microdilution); assay type: cell-based; details: Scedosporium
[10] = test system: Blastomyces dermatitidis; experiment: Antifungal MIC (RPMI-1640 microdilution); assay type: cell-based
[11] = test system: Emergomyces sp.; experiment: Antifungal MIC (RPMI-1640 microdilution); assay type: cell-based
[12] = test system: Histoplasma capsulatum; experiment: microbe, parasite or virus in culture; assay type: cell-based
[13] = test system: Coccidioides sp.; experiment: microbe, parasite or virus in culture; assay type: cell-based
[14] = test system: SARS-CoV-2; experiment: microbe, parasite or virus in culture; assay type: cell-based; details: Severe acute respiratory syndrome coronavirus 2, Vero C1008, 96 h
[15] = test system: SARS-CoV-2; experiment: microbe, parasite or virus in culture; assay type: cell-based
[16] = test system: SARS-CoV-2; details: cited from earlier work
[17] = test system: replicating Mycobacterium tuberculosis; details: cited from earlier work
[18] = test system: Para-Influenza-3 virus, Reovirus, Sindbis virus, Cocsackie B4 virus, Punto Toro virus and Yellow Fever Virus; details: cited from earlier work
[19] = test system: Babesia; details: mice; cited from earlier work
[20] = in vivo; cited from earlier work
[21] = in vitro; details: African green monkey
[22] = test system: Aspergillus flavus; experiment: Antifungal MIC (RPMI-1640 microdilution); assay type: cell-based
[23] = test system: Aspergillus fumigatus; experiment: Antifungal MIC (RPMI-1640 microdilution); assay type: cell-based
[24] = test system: Fusarium sp.; experiment: Antifungal MIC (RPMI-1640 microdilution); assay type: cell-based
[25] = test system: Altenaria sp.; experiment: Antifungal MIC (RPMI-1640 microdilution); assay type: cell-based; details: read-out: MIC 100% inhibition
[26] = test system: Curvularia sp.; experiment: Antifungal MIC (RPMI-1640 microdilution); assay type: cell-based; details: read-out: MIC 100% inhibition
[27] = test system: Exserohilum sp.; experiment: Antifungal MIC (RPMI-1640 microdilution); assay type: cell-based; details: read-out: MIC 100% inhibition

Q: Which MIC50 ([1]; ATCC22019, read-out: MIC 50% inhibition, isolate ATCC 22019) does the source give for `OC(Cn1cncn1)(Cn1cncn1)c1ccc(F)cc1F` [Fluconazole] here?
A: 1 µg/mL (≈ 3.27 µM)

Q: What about the MIC50 ([1]; read-out: MIC 50% inhibition, isolate CP1) of the same compound?
A: 0.5 µg/mL (≈ 1.63 µM)

Q: And the “MIC 50% inhibition” value ([1]; isolate CP2)?
A: 0.5 µg/mL (≈ 1.63 µM)

Q: And the “MIC 50% inhibition” value ([1]; isolate CP3)?
A: 0.5 µg/mL (≈ 1.63 µM)

Q: What about the MIC50 [2] of the same compound?
A: 32 µg/mL (≈ 104 µM)

Q: What about the MIC50 ([3]; ATCC90028, read-out: MIC 50% inhibition, isolate ATCC 90028) of the same compound?
A: 0.25 µg/mL (≈ 0.816 µM)

Q: What about the MIC50 ([3]; read-out: MIC 50% inhibition, isolate CA3) of the same compound?
A: > 64 µg/mL

Q: And the MIC50 ([3]; read-out: MIC 50% inhibition, isolate SC5314)?
A: 0.5 µg/mL (≈ 1.63 µM)

Q: And the MIC50 ([4]; read-out: MIC 50% inhibition, isolate DI17-46)?
A: > 64 µg/mL

Q: What about the MIC50 ([4]; read-out: MIC 50% inhibition, isolate DI17-47) of the same compound?
A: > 64 µg/mL

Q: What about the MIC50 ([4]; read-out: MIC 50% inhibition, isolate DI17-48) of the same compound?
A: 2 µg/mL (≈ 6.53 µM)

Q: And the MIC50 ([5]; read-out: MIC 50% inhibition, isolate 05-62)?
A: > 64 µg/mL

Q: What about the MIC50 ([5]; read-out: MIC 50% inhibition, isolate 05-761) of the same compound?
A: 8 µg/mL (≈ 26.1 µM)

Q: And the MIC50 ([5]; read-out: MIC 50% inhibition, isolate CG3)?
A: 32 µg/mL (≈ 104 µM)

Q: What about the MIC50 ([6]; read-out: MIC 50% inhibition, isolate Cgui1) of the same compound?
A: 1 µg/mL (≈ 3.27 µM)

Q: What about the MIC50 ([6]; read-out: MIC 50% inhibition, isolate Cgui2) of the same compound?
A: 2 µg/mL (≈ 6.53 µM)

Q: And the MIC50 ([6]; read-out: MIC 50% inhibition, isolate Cgui3)?
A: 2 µg/mL (≈ 6.53 µM)

Q: What about the MIC50 ([7]; read-out: MIC 50% inhibition, isolate CN3) of the same compound?
A: 64 µg/mL (≈ 209 µM)

Q: What about the MIC50 ([7]; read-out: MIC 50% inhibition, isolate H99) of the same compound?
A: 16 µg/mL (≈ 52.2 µM)

Q: What about the MIC50 ([7]; read-out: MIC 50% inhibition, isolate USC1597) of the same compound?
A: 4 µg/mL (≈ 13.1 µM)

Q: What about the MIC50 ([8]; read-out: MIC 50% inhibition, isolate MYA-3630) of the same compound?
A: 8 µg/mL (≈ 26.1 µM)

Q: And the MIC50 ([9]; read-out: MIC 50% inhibition, isolate Scedo1)?
A: 0.125 µg/mL (≈ 0.408 µM)

Q: And the MIC50 ([9]; read-out: MIC 50% inhibition, isolate 00-180)?
A: 0.125 µg/mL (≈ 0.408 µM)

Q: And the MIC50 ([9]; read-out: MIC 50% inhibition, isolate LPI)?
A: 4 µg/mL (≈ 13.1 µM)

Q: And the MIC50 ([10]; read-out: MIC 50% inhibition, isolate Blasto1)?
A: ≤ 0.03 µg/mL

Q: And the MIC50 ([10]; read-out: MIC 50% inhibition, isolate Blasto2)?
A: ≤ 0.03 µg/mL

Q: What about the MIC50 ([10]; read-out: MIC 50% inhibition, isolate Blasto3) of the same compound?
A: ≤ 0.03 µg/mL

Q: And the MIC50 ([11]; read-out: MIC 50% inhibition, isolate Emerg2)?
A: ≤ 0.03 µg/mL

Q: And the MIC50 ([11]; read-out: MIC 50% inhibition, isolate Emerg3)?
A: ≤ 0.03 µg/mL

Q: And the MIC50 ([12]; read-out: MIC 50% inhibition, isolate HC1)?
A: 0.125 µg/mL (≈ 0.408 µM)

Q: What about the MIC50 ([12]; read-out: MIC 50% inhibition, isolate HC2) of the same compound?
A: ≤ 0.03 µg/mL

Q: What about the MIC50 ([12]; read-out: MIC 50% inhibition, isolate HC3) of the same compound?
A: ≤ 0.03 µg/mL

Q: What about the MIC50 ([13]; read-out: MIC 50% inhibition, isolate Cocci1) of the same compound?
A: 16 µg/mL (≈ 52.2 µM)

Q: And the MIC50 ([13]; read-out: MIC 50% inhibition, isolate Cocci2)?
A: 32 µg/mL (≈ 104 µM)

Q: And the MIC50 ([13]; read-out: MIC 50% inhibition, isolate D117-143)?
A: 4 µg/mL (≈ 13.1 µM)

Q: With `CCN(CCO)CCCC(C)Nc1ccnc2cc(Cl)ccc12` (centres unmarked) [Hydroxychloroquine] as the compound, how does the inhibition at 33 µM ([14]; 33 microM, 4-day assay, read-out: inhibition at the highest non-toxic concentration) read?
A: 43%

Q: And the EC50 ([15]; Severe acute respiratory syndrome coronavirus 2, Vero C1008, Vero E6, moi 0.05, 48 hours, TCID50)?
A: 10.4 µM

Q: And the selectivity index ([15]; calculated relative to the CC50 for the 4-day test)?
A: 5.3

Q: What about the “fold less potent in CALU-3 than in VERO cells” value [16] of the same compound?
A: 10 fold

Q: What does the source list for `COc1cc(NC(C)CCCN)c2ncccc2c1` (centres unmarked) [Primaquine]?
A: MIC [17]: 256 microgram/ml; EC50 [18]: > 50 µM; dose clearing Babesia parasitemia [19]: 100 mg/kg; half-life [20]: approximately 6 hours

Q: Which EC50 [14] does the source give for `CCC(CC)COC(=O)[C@H](C)N[P@](=O)(OC[C@H]1O[C@@](C#N)(c2ccc3c(N)ncnn23)[C@H](O)[C@@H]1O)Oc1ccccc1` [Remdesivir] here?
A: 700 nM

Q: What about the CC50 [21] of the same compound?
A: > 100 µM

Q: What does the source list for `C[C@@H](c1ncncc1F)[C@](O)(Cn1cncn1)c1ccc(F)cc1F` [Voriconazole]?
A: MIC ([8]; read-out: MIC 100% inhibition): 0.125 µg/mL (≈ 0.358 µM); MIC ([22]; ATCC204304, read-out: MIC 100% inhibition, isolate ATCC 204304): 1 µg/mL (≈ 2.86 µM); MIC ([22]; read-out: MIC 100% inhibition, isolate Aflav2): 2 µg/mL (≈ 5.73 µM); MIC ([22]; read-out: MIC 100% inhibition, isolate Aflav3): 1 µg/mL (≈ 2.86 µM); MIC ([23]; read-out: MIC 100% inhibition, isolate AF293): 1 µg/mL (≈ 2.86 µM); MIC ([23]; read-out: MIC 100% inhibition, isolate D115-106): > 16 µg/mL; MIC ([23]; read-out: MIC 100% inhibition, isolate D115-116): 8 µg/mL (≈ 22.9 µM); MIC ([24]; read-out: MIC 100% inhibition, isolate FO1): 4 µg/mL (≈ 11.5 µM); MIC ([24]; read-out: MIC 100% inhibition, isolate FS2): > 16 µg/mL; MIC ([24]; read-out: MIC 100% inhibition, isolate FSI): 8 µg/mL (≈ 22.9 µM); MIC [25]: 2 µg/mL (≈ 5.73 µM); MIC [26]: 0.5 µg/mL (≈ 1.43 µM); MIC [27]: 0.5 µg/mL (≈ 1.43 µM)

Q: Which “fold less potent in CALU-3 than in VERO cells” value [16] does the source give for `CCN(CC)CCCC(C)Nc1ccnc2cc(Cl)ccc12` (centres unmarked) [chloroquine] here?
A: 10 fold

From US12691107B2, “Methods for the treatment and prevention of lung infections caused by gram-positive bacteria, fungus, or virus by administration of tafenoquine” (priority 2020, dated 2026)
